Results from US8404742B2, “Diosmetin compounds, a process for their preparation and pharmaceutical compositions containing them” (Les Laboratories Server, priority 2008, dated 2013).

Columns and labels:
[1] = tested on: washed platelets; test: In vitro inhibition of platelet aggregation (collagen-induced, washed platelets, turbidimetry); details: Oryctolagus cuniculus, read-out: percentage inhibition of platelet aggregation
Method: The platelet-rich plasma is obtained by centrifugation. The platelets are then washed by centrifugation.
The washed platelets are resuspended in a Tyrode buffer. […] After 2 minutes, aggregation is brought about using collagen (4 μg/ml); the response is then recorded for 6 minutes. Platelet aggregation is quantified by means of turbidimetry, that is to say the percentage light that is transmitted through the platelet suspension with respect to a cell containing Tyrode and a cell containing the solvent (0.1% DMSO).

[2] = tested on: Leukocyte adhesion to the endothelial cells in the post-capillary venules; test: In vivo inhibition of leukocyte adhesion (ischaemia/reperfusion, hamster cheek pouch); parameters: species or system hamsters; details: 3 mg/kg oral single dose, n=3
Method: Three groups of 3 hamsters, weighing from 90 to 110 g, are used in this study. Thirty minutes before anaesthesia, the hamsters are treated orally with a single dose of placebo (gum arabic 10%), of compound of Example 1 (3 mg/kg) or of reference compound (3 mg/kg). The animals are anaesthetised with pentobarbital 50 mg/kg by intraperitoneal administration. The hamsters are placed under a microscope and the cheek pouch is isolated and immersed in a perfusion solution (NaCl 110.0 mM, KCl 4.7 mM, CaCl2 2.0 mM, MgSO4 1.2 mM, NaHCO3 18.0 mM, Hepes 15.39 mM and Hepes Na^+-salt 14.61 mM), (Duling, The preparation and use of the hamster cheek pouch for studies of the microcirculation, 1973, Microvasc. Res. 5: 423-429; Svensjö et al., The hamster cheek pouch preparation as a model for studies of macromolecular permeability of the microvasculature, 1978, Uppsala J. Med. Sci. 83: 71-79).
Local ischaemia is brought about with the aid of a latex tube fitted at the entrance to the cheek pouch. The intratubular pressure of the tube is increased to 200-220 mm Hg with the aid of a calibrated syringe. This total occlusion is carried out for 30 minutes and then reperfusion is performed for 45 minutes. Leukocyte adhesion to the endothelial cells in the post-capillary venules is quantified in a field of 6 mm^2 immediately after the […] (defined as 100%) and then at different times after reperfusion (0, 15, 30 and 45 minutes).

[3] = tested on: NADPH oxidase; test: In vitro inhibition of the activity of NADPH oxidase in HUVEC (angiotensin II, lucigenin luminescence); format: cell-based, human; details: 100 μM compound, angiotensin II 1 μM induction, control = 100%, n=3
Method: The study is carried out on human endothelial cells HUVEC (Human Umbilical Vein Endothelial Cells, Clonetics Co). The cells are cultured in an EBM2 medium (Endothelial Basal Medium, Clonetics Co) supplemented with 2% FCS (Fœtal Calf Serum) and EGM2 (Endothelial Growth Medium, Clonetics Co).
The cells are incubated in the presence of solvent (0.1% DMSO, compound of Example 1 control), EBM2 (compound of Example 2 control and compound of Example 3 control), compound of Example 1 (100 μM), compound of Example 2 (100 μM) or compound of Example 3 (100 μM) for 15 minutes and then activated using angiotensin II (1 μM) for 30 minutes in order to activate the NADPH oxidase. The cells are washed with EBM2, and then the NADPH oxidase substrate (NADPH, 200 μM) and lucigenin (25 μM) are added. The reduction in lucigenin by the superoxide anions produced by the NADPH oxidase is quantified using a luminometer. The number of counts per second (cps) of the control groups is compared to the treatment groups. The cps obtained with the control groups are considered as 100% NADPH oxidase activity.
The activity of the compounds of Examples 1, 2 and 3 is evaluated as a function of the number of cps obtained, that activity being greater the lower the number of cps.

SMILES	inhibition at 30 µM [1]	number of leukocytes adhering to endothelial cells in post-capillary venules (number after ischaemia = 100%) ([2]; 0 minutes after reperfusion)	number of leukocytes adhering to endothelial cells in post-capillary venules (number after ischaemia = 100%) ([2]; 15 minutes after reperfusion)	number of leukocytes adhering to endothelial cells in post-capillary venules (number after ischaemia = 100%) ([2]; 30 minutes after reperfusion)	number of leukocytes adhering to endothelial cells in post-capillary venules (number after ischaemia = 100%) ([2]; 45 minutes after reperfusion)	NADPH oxidase activity (%/control group) [3]
C=C(C)Cc1c(-c2cc(=O)c3c(O)c(CC(=C)C)c(O)c(CC(=C)C)c3o2)ccc(OC)c1O [Example 1, 6,8,2′-Tris(isobut-2-en-1-yl)diosmetin]	36.6 ± 9.9%	81.7 ± 19.1%	100 ± 13.7%	91.0 ± 18.7%	109.3 ± 23.0%	38.16 ± 3.13%
C=C(C)Cc1c(-c2cc(=O)c3c(O)c(CC(=C)C)c(O[C@@H]4O[C@H](C(=O)O)[C@@H](O)[C@H](O)[C@H]4O)c(CC(=C)C)c3o2)ccc(OC)c1O [Example 2, (5-Hydroxy-2-[3-hydroxy-4-methoxy-2-(isobut-2-en-1-yl)phenyl]-6,8-bis(isobut-2-en-1-yl)-4-oxo-4H-chromen-7-yl)-beta-D-glucuronic acid]	–	–	–	–	–	30.60 ± 4.83%
C=C(C)Cc1c(-c2cc(=O)c3c(O)c(CC(=C)C)c(O)c(CC(=C)C)c3o2)ccc(OC)c1O[C@@H]1O[C@H](C(=O)O)[C@@H](O)[C@H](O)[C@H]1O [Example 3, 3-[5,7-Dihydroxy-6,8-bis(isobut-2-en-1-yl)-4-oxo-4H-chromen-2-yl]-6-methoxy-2-(isobut-2-en-1-yl)phenyl-beta-D-glucuronic acid]	–	–	–	–	–	18.45 ± 4.08%
